System: Meerschweinchen
Experiment: Test for anti-dandruff effect on oleic-acid-treated back skin of shorn guinea pigs (skin fold thickness and visual scaling score)
Type: in vivo
Settings: 5 % test substance with 5 % Ölsäure in 70 %igem Ethanol, topical on the back, 60 min exposure on 4 consecutive days, relative to skin treated with 5 % Ölsäure in 70 % Ethanol only, significant (+, 95 %)
Excerpt: Die Prüfung auf Antischuppenwirkung wurde in folgender Weise durchgeführt:
Die Prüfsubstanz wurde in 5 % iger Konzentration zusammen mit 5 % Ölsäure in 70 %igem Ethanol gelöst und in alternierender Reihenfolge und in rotierendem Schema auf den Rücken junger, geschorener weiblicher Meerschweinchen im Gewicht von 600 ± 50 g aufgetragen. Die Einwirkungszeit der Substanz wurde dabei auf 60 Minuten begrenzt, da diese Zeit ausreichte, um eine Wirkung zu erzielen. Anschließend wurden die Tiere mit warmem Wasser 30 Sekunden lang abgeduscht. Die Reihenfolge der Tiere bei der Applikation wechselte dabei täglich, um Differenzen in der Einwirkungszeit zwischen dem ersten und letzten Tier der Gruppe auf ein Minimum zu begrenzen. Diese Behandlung geschah an vier aufeinanderfolgenden Tagen, darauf folgte eine Ruhezeit (Entwicklungszeit von drei Tagen). Am siebenten Tag wurde ausgewertet, und zwar a) kutimetrisch auf Hautfaltendicke instrumentell mit dem Cutimeter nach Götze und b) visuell auf Schuppenbildung bzw. Hemmung nach einer 4-Punkte-Skala folgender Definition: • 0 = keine Schuppen • 1 = leichte Schuppen • 2 = kräftige Schuppen • 3= starke Schuppen mit Rötung • 4 = Krusten mit Aufrichten der Haare.
Die Versuchsgruppe bestand aus 6 Tieren. Das Kollektiv wurde mathematisch auf Homogenität geprüft und nach Eliminierung signifikant abweichender Tiere wurden Mittelwert und Streuung berechnet. […]

COc1ccc(Cc2nccc3cc(OC)c(OC)cc23)cc1OC [Papaverin, 1-(3',4'-dimethoxybenzyl)-6,7-dimethoxy-isochinolin]
Hautdickenmessung Hemmung % (evaluated on day 7 with the Cutimeter nach Götze): 17%
Hautschuppenmessung Hemmung % (evaluated visually on day 7 on a 0-4 scale): 100%
